Values of other authors as cited in PMC8273902 (Drug Design, Development and Therapy, 2021).
Where two headings read alike, the source gives them in different places.

Details: humans

Row | AUC0-t (20 mg) | CL/F (20 mg) | Cmax (20 mg) | Dose linearity | Food effect on PK properties | Food effect on PK properties (listed as tadalafil) | SMILES | AUC0-t (100 mg) | Cmax (100 mg) | CL (CL, 50 mg, intravenous) | Food effect: reduction of AUC (systemic exposure) (high-fat meal) [%] | Tmax | Vd/F [L] | t1/2 [h]
1 |  |  |  |  |  |  | CCCc1nn(C)c2c(=O)[nH]c(-c3cc(S(=O)(=O)N4CCN(C)CC4)ccc3OCC)nc12 [Sildenafil, sildenafil] | 1685 (100 mg) h·ng/mL | 560 (100 mg) ng/mL | 41 (CL, 50 mg, intravenous) L/h | 11 | 1 (0.5–2) h | >310 | 3 to 5
2 | 8066 (20 mg) h·ng/mL | 2.5 (20 mg) L/h | 378 (20 mg) ng/mL | Linear | No significant effect | not affected by food | CN1CC(=O)N2[C@H](c3ccc4c(c3)OCO4)c3[nH]c4ccccc4c3C[C@@H]2C1=O [Tadalafil, tadalafil] |  |  |  |  | 2 (0.5–6) h | 60 to 70 | 
